Measured values from patent US12653902B2, “Photo-immunoconjugate formulations and methods of treatment relating thereto” (University of Maryland, College Park, priority 2019, dated 2026).

Columns and labels:
[1] = Absorbance at 690 nm in PBS compared to DMSO; assay type: physicochemical; details: fixed BPD concentration
[2] = Photoactivity (maximal fluorescence intensity in PBS divided by that in DMSO); assay type: physicochemical; details: maximal FI in PBS divided by maximal FI in DMSO
Description: Photo-immunoconjugate-nanoliposomes (PIC-Nal) and photo-immunoconjugate-nanoliposomal irinotecan (PIC-Nal-IRI) were synthesized via cooper-free click chemistry (FIG. 1). Briefly, azide-containing PICs were mixed overnight with DBCO-containing Nal (or DBCO-containing Nal-IRI) at 60:1 ratio. Sepharose CL-4B size exclusion chromatography was used to purify PIC-Nal and PIC-Nal-IRI. Irinotecan and BPD concentrations were determined by UV-Vis spectroscopy and established molar extinction coefficients: 20985 M^−1cm^−1 at 380 nm for irinotecan, 80500 M^−1cm^−1 at 435 nm and 34,895 M^−1 cm^−1 at 687 nm for BPD (Table 1). Conjugation efficacy was determined by the molar ratio of PIC onto the liposomes to the total PIC added initially. Singlet oxygen sensor green (SOSG, 5 μM) was used to detect singlet oxygen (^1O2) yield upon light irradiation of PIC-Nal-IRI or controls. BPD concentration is fixed at 5 μM. A microplate reader (BioTek) was used to acquire SOSG fluorescence signals (Ex/Em: 504/525 nm) before and after light irradiation (690 nm, 150 mW/cm^2, 20 J/cm^2). Photoactivity is defined as the maximal fluorescence intensity (FI) of photosensitizer in PBS divided by the maximal FI of photosensitizer in DMSO.

[3] = cited from earlier work
OVCAR-5 cells = experiment: Intracellular BPD uptake (BPD fluorescence, extraction and imaging); assay type: cell-based, human; details: 24 hours post-incubation, compared to PIC and PIC-Nal
Description: For uptake and phototoxicity studies, OVCAR-5 cells (200 k cells/35-mm dish) were incubated with PIC-Nal or controls (i.e., PIC alone, no-treatment) at a fixed BPD concentration (0.25 μM) for 24 hours. For uptake study, cells were washed twice with PBS and dissolved in SOLVABLE™. The BPD fluorescence signals (Ex/Em: 435/690 nm) were acquired using a microplate reader to quantify the uptake of PIC-Nal. In another set of experiments, washed cells were fixed with 4% paraformaldehyde, and stained with DAPI. Cells were imaged with the LionHeart Imager (BioTek) using the 10× objective to visualize the BPD signal (Ex/Em: 422/690 nm) and the DAPI signal (Ex/Em: 358/461 nm). BPD fluorescence intensity was quantified using ImageJ (Schneider C A et al., NIH Image to ImageJ: 25 years of image analysis. Nat Methods 2012, 9:671-675). For phototoxicity studies, cells were irradiated with a 690 nm laser (20 J/cm^2, 150 mW/cm^2) at 24 hours post-incubation of PIC-Nal or controls. Cell viability was determined by MTT (3-(4,5-dimethylthiazol-2-yl)-2,5-diphenyltetrazolium bromide) assay (Thermo) at 24 hours post-light activation.

loss of absorbance value at 690 nm in PBS compared to fully dissolved in DMSO [1]: ~64%
photoactivity [2]: poor photoactivity
Substance: benzoporphyrin derivative [BPD]
water solubility [3]: < 50 µg/mL
intracellular uptake by fluorescence imaging (OVCAR-5 cells): highest uptake
